Experimental data reported in patent US9835614B2, “Measurement of cell growth and drug susceptibility by resonant mass measurement” (Affinity Biosensors, LLC, priority 2013, dated 2017).

System: E. coli
Assay: Resonant mass measurement of growth of E. coli cultures with antibiotics
Format: cell-based

## CC1(C)S[C@@H]2[C@H](NC(=O)[C@H](N)c3ccccc3)C(=O)N2[C@H]1C(=O)O [ampicillin]
E. coli in nutrient broth containing 64 μg/ml, cultures measured cyclically via selection valve
  time development of mass and number of microbes in culture (FIG. 4): grow robustly
E. coli, 64 μg/ml, concentration calculated in each time interval
  microbe number concentration growth curve (number of microbes per ml, FIG. 5(a)): begins at about one hour
At the measured concentration (64 μg/ml)
  diagnostic susceptibility of the E. coli strain: resistant
